# Data from PubChem BioAssay (NCI).
# “And” between values parts separate entries of the source, which are not always exact repeats. Equal entries are not always repeated.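 Results reflect a 48-hour exposure of cells in 96-well plates to compound at five concentrations. At the GI50, growth is halved. TGI: total growth inhibition.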 The source made the active and inactive calls. Rule as the data show it: active = GI50 below about 0.43 µM; inactive = the rest.
# Assays:
# Assay in all cases: NCI-60 cell line screen, 48 h
# DMS 273 small cell lung = tested on: DMS 273 small cell lung
# M19-MEL melanoma = tested on: M19-MEL melanoma
# LXFL 529 NSCLC = tested on: LXFL 529 NSCLC
# KM20L2 colon = tested on: KM20L2 colon
# DLD-1 colon = tested on: DLD-1 colon
# DMS 114 small cell lung = tested on: DMS 114 small cell lung
# XF 498 CNS = tested on: XF 498 CNS
# SNB-78 CNS = tested on: SNB-78 CNS
# RXF-631 renal = tested on: RXF-631 renal
# MDA-N = tested on: MDA-N
SMILES,TGI (DMS 273 small cell lung) [µM],TGI (M19-MEL melanoma),TGI (LXFL 529 NSCLC) [µM],TGI (KM20L2 colon) [µM],TGI (DLD-1 colon) [µM],TGI (DMS 114 small cell lung),TGI (XF 498 CNS) [µM],TGI (SNB-78 CNS),TGI (RXF-631 renal) [µM],TGI (MDA-N) [µM],GI50 (MDA-N) [µM],GI50 (DMS 273 small cell lung) [ng/mL],GI50 (M19-MEL melanoma) [ng/mL],outcome (LXFL 529 NSCLC),outcome (RXF-631 renal),GI50 (DLD-1 colon),GI50 (DMS 114 small cell lung) [ng/mL],GI50 (SNB-78 CNS)
CCN(CC)C(=O)Cc1[nH][nH]c(=O)c1C(=O)N(CC)CC,> 100,> 100 µM,> 100,> 100,> 100,> 100 µM,> 100,> 100 µM,–,–,–,–,–,–,–,–,–,–
CCN(CC)c1ccc(N=Nc2ccc(-c3nc4cccnc4s3)cc2)cc1,–,–,> 100,> 100,> 100,> 100 µM,72.1,> 100 µM,–,–,–,–,–,–,–,–,–,–
O=C(CC(C(=O)c1ccsc1)c1cccs1)c1cccs1 (stereo not given),> 100,> 100 µM,> 100,> 100,> 100,> 100 µM,> 100,> 100 µM,–,–,–,–,–,–,–,–,–,–
N#Cc1c(N)oc2cc3c(C#N)c(N)oc3cc12,> 100,> 100 µM,> 100,> 100,> 100,> 100 µM,–,–,> 100,–,–,–,–,–,–,–,–,–
O=C1OC(c2ccccc2)=N/C1=C\c1ccccc1,–,–,–,–,–,–,–,–,–,> 100,–,–,–,–,–,–,–,–
CC(C)(c1ccc(C=O)o1)c1ccc(C(C)(C)c2ccc(C=O)o2)o1,> 100,–,> 100,> 100,–,–,–,> 100 µM,> 100,–,–,–,–,–,–,–,–,–
CCOC(=O)C1=C(C)N(NC(=O)Nc2ccccc2)C2(N)N(NC(=O)Nc3ccccc3)C(C)=C(C(=O)OCC)C12C#N (stereo not given),31.3,31.6 µM,32.6,33.4,34.1,32.9 µM,–,37.6 µM,–,–,–,–,–,–,–,–,–,–
CC(=O)O[C@H]1CSC[C@@H](OC(C)=O)C1[N+](=O)[O-] (stereo not given in full),> 100,> 100 µM,34,> 100,–,> 100 µM,–,> 100 µM,> 100,–,–,–,–,–,–,–,–,–
CO[C@H]1C[C@H](O[C@H]2CC[C@@]3(C)[C@H](CC[C@@H]4[C@@H]3CC[C@]3(C)[C@@H](C5=CC(=O)OC5)CC[C@]43O)C2)O[C@H](C)[C@H]1O,–,–,–,–,–,–,–,–,–,0.114,–,–,–,–,–,–,–,–
C(=C\c1ccc2ccccc2c1Nc1ccccc1)/c1ccccc1,> 100,> 100 µM,> 100,> 100,> 100,> 100 µM,40.6,> 91.8 µM,–,–,–,–,–,–,–,–,–,–
NC1(C(=O)O)CCC(C(=O)O)CC1 (stereo not given),> 100,> 100 µM,> 100,> 100,> 100,> 100 µM,> 100,> 100 µM,> 100,–,–,–,–,–,–,–,–,–
Nc1ncc(CN2CCCC2)c(-c2ccccc2O)n1,> 750,> 750 µM,> 750,> 750,> 750,> 750 µM,> 750,–,–,–,–,–,–,–,–,–,–,–
COC1=CC(=O)[C@@]2(C)C(C)[C@H](c3ccccc3)[C@H]2C1=O (stereo not given in full),> 100,> 100 µM,> 100,> 100,> 100,–,> 100,–,> 100,–,–,–,–,–,–,–,–,–
O=C1OCc2nc3c(c(-c4ccccc4C(F)(F)F)c21)C(=O)OC3,> 100,> 100 µM,> 100,> 100,> 100,> 100 µM,–,> 100 µM,–,–,–,–,–,–,–,–,–,–
Cc1cc2c3ccccc3n3c2c2c1OC1(C)CCC(C2C1)C3(C)C (stereo not given),> 25,> 25 µM,> 25,> 25,> 25,> 25 µM,> 25,> 25 µM,–,–,–,–,–,–,–,–,–,–
C=C1C(=O)C23C(O)CC4C(C)(C)CCC(O)C4(C)C2CC(OC(C)=O)C1[C@H]3O (stereo not given in full),3.79,3.22 µM,2.41,11.1,4.65,–,3.33,–,15.7,20.6,–,–,–,–,–,–,–,–
O=C1c2c(c3c4ccccc4n(CC4CO4)c3c3[nH]c4ccccc4c23)C(=O)N1Cc1ccccc1 (stereo not given),> 100,> 100 µM,> 100,–,–,> 100 µM,> 100,> 100 µM,> 100,–,–,–,–,–,–,–,–,–
CCc1ccc([OH2+])c(C(=O)[O-])c1.CCc1ccc([OH2+])c(C(=O)[O-])c1.CCc1ccc([OH2+])c(C(=O)[O-])c1.CCc1ccc([OH2+])c(C(=O)[O-])c1.[Cu+2].[Cu+2],–,–,–,–,–,–,–,–,–,> 100,> 71.1,–,–,–,–,–,–,–
COc1cc2c(cc1O)CCN[C@@]21CS[C@H]2c3c(OC(C)=O)c(C)c4c(c3C(COC1=O)N1C2C2NC(Cc3cc(C)c(OC)c(O)c32)[C@@H]1O)OCO4 (stereo not given in full),–,4.5 ng/mL,–,–,–,4.5 ng/mL,–,932 ng/mL,–,–,–,4.5,4.5,inactive,inactive,0.000365 ng/mL and 4.5 ng/mL,4.5,0.00037 ng/mL and 4.5 ng/mL
Cc1[nH]c2c(C)c3c([nH]c4ccc(Cl)cc43)c(C)c2c(=O)c1C,96.1,54.9 µM,–,–,73.3,83.3 µM,> 100,> 100 µM,–,32.6,–,–,–,–,–,–,–,–
